From patent publication US20260166057A1, “1,3,5(10),16-ESTRATETRAEN-3-YL ACETATE FOR USE IN IMPROVING PSYCHOMOTOR OR COGNITIVE PERFORMANCE” (priority 2023, published 2026)
Where two headings read alike, the source gives them in different places.

Assays:
[1] = test system: subjects with excessive daytime sleepiness; test: ETA in mental fatigue associated with excessive daytime sleepiness (Example 6); assay type: in vivo, human; conditions: intranasal as in Example 4
Source text: (§1) In subjects experiencing decreased psychomotor and/or cognitive performance in mental fatigue associated with excessive daytime sleepiness, a therapeutically effective amount of ETA is intranasally administered as described in Example 4. Psychomotor and cognitive performance improve in this group of subjects.

[2] = test system: subjects with peripartum depression; test: ETA in peripartum depression (Example 10); assay type: in vivo, human; conditions: as in Example 4
Procedure: In subjects experiencing decreased psychomotor and/or cognitive performance associated with peripartum depression, a therapeutically effective amount of ETA is administered to the olfactory epithelium as described in Example 4. ETA is administered separately from any other antidepressant therapy and is given sequentially or proximate in time to such other medications. Depressive scores reduce when the subjects are evaluated. Psychomotor and cognitive performance improve in this group of subjects.

[3] = test system: subjects with shift work sleep disorder; test: ETA in mental fatigue associated with shift work sleep disorder (Example 5); assay type: in vivo, human; conditions: intranasal as in Example 4
Source text: as §1, with “shift work sleep disorder,” for “excessive daytime sleepiness,”

vomeronasal organ = conditions: cited from earlier work
[4] = test system: nasal septal olfactory chemosensory epithelium; test: Electrophysiology: depolarization of chemosensory epithelium; parameters: species or system human
[5] = test system: subjects with mild cognitive impairment; test: ETA in mild cognitive impairment (Example 12); assay type: in vivo, human; conditions: intranasal as in Example 4
Procedure: In subjects experiencing decreased psychomotor and/or cognitive performance associated with mild cognitive impairment, a therapeutically effective amount of ETA is administered intranasally as described in Example 4. Psychomotor and cognitive performance improve in this group of subjects.

subjects with ADHD = test: ETA in ADHD (Example 11); assay type: in vivo, human; conditions: intranasal as in Example 4
Procedure: In subjects experiencing decreased psychomotor and/or cognitive performance associated with ADHD, a therapeutically effective amount of ETA is administered intranasally as described in Example 4. Psychomotor and cognitive performance improve in this group of subjects.

[6] = test system: subjects with MDD or peripartum depression; test: ETA in mental fatigue associated with a depressive disorder (Example 7); assay type: in vivo, human; conditions: nasal as in Example 4
Source text: as §1, with “a depressive disorder such as MDD or peripartum depression,” for “excessive daytime sleepiness,”, “nasally” for “intranasally”, “administered to the olfactory epithelium” for “administered”

healthy male volunteers [7] = conditions: in vivo
bone marrow = test: In vivo bone marrow micronucleus test
rat progestin receptor = rat progestin receptor (Rattus norvegicus, UniProt Q63449); test: In vitro agonist/antagonist activity on steroid receptors; assay type: biochemical
rat progestin receptor, sequence (Q63449 whole entry): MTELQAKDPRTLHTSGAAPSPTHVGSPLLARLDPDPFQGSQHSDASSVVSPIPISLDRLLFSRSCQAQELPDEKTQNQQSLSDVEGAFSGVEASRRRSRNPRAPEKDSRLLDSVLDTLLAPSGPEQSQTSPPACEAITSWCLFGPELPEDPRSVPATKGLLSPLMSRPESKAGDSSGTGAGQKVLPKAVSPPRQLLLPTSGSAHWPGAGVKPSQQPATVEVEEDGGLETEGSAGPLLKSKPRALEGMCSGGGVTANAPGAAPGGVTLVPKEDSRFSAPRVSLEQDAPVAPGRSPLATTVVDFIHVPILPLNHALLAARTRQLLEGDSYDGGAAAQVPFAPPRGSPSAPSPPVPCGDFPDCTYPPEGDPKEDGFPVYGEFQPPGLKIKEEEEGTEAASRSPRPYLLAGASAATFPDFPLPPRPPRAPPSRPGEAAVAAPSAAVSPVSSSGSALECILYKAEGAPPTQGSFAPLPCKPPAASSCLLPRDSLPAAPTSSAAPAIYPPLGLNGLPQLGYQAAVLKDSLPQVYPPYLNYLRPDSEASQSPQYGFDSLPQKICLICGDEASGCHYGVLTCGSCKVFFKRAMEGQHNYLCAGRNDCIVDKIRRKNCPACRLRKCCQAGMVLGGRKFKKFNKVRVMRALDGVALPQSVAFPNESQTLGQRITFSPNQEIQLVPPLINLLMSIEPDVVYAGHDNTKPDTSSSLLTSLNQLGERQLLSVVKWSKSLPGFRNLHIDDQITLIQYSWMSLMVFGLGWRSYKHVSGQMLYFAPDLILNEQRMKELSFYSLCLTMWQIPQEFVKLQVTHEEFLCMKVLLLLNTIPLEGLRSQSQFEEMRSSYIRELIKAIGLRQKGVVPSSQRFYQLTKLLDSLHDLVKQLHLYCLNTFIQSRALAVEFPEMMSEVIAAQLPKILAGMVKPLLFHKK

[8] = biological target: rat glucocorticoid receptor (Rattus norvegicus, UniProt P06536); test: as above; assay type: biochemical
rat glucocorticoid receptor, sequence (P06536 whole entry): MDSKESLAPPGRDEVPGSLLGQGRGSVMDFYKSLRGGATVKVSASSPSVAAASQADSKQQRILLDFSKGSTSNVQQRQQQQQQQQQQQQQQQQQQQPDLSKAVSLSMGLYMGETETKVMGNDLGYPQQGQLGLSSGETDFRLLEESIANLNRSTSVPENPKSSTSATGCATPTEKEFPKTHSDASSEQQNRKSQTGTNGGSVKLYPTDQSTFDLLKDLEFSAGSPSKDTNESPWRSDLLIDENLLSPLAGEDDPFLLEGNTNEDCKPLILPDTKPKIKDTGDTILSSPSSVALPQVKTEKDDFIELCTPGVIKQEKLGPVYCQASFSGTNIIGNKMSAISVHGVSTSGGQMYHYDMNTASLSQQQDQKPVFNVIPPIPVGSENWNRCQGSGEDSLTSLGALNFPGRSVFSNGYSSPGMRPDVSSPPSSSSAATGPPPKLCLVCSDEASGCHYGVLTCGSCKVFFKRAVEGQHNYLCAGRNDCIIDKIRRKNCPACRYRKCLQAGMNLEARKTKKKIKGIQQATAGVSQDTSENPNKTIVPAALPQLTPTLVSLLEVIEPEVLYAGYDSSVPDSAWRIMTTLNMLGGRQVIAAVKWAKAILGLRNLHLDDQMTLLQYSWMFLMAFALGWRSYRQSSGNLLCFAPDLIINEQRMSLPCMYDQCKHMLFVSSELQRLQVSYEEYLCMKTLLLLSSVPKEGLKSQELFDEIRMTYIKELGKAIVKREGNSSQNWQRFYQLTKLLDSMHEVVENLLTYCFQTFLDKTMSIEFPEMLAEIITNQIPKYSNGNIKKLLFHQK

[9] = Ames reverse mutation assay; assay type: cell-based
[10] = Onset of effect after nasal administration; assay type: in vivo, human
Source text: Because of the rapid onset of effect of nasally administered ETA, and its safety, it is expected that ETA may be administered as needed once mental fatigue is sensed, for example immediately a mentally fatigued person senses sleepiness or a symptom of sleepiness (such as excessive yawning, closing the eyes, nodding of the head, etc.) or a decline in psychomotor or cognitive performance, to improve psychomotor and cognitive performance under those circumstances. It is also expected that ETA may be administered prophylactically to improve, or at least prevent the normal decline in, psychomotor and/or cognitive performance in persons who are, or are likely to become, mentally fatigued. Thus, for example, a firefighter, whose work schedule may require him or her to be available continuously for 72 hours even though he/she is allowed to sleep at night when not actually needed, might administer ETA to improve psychomotor and/or cognitive performance when awakened at night and called to fight a fire; or a pilot of an overnight flight, who flies the aircraft during an afternoon takeoff, rests during the overnight cruise portion of the flight, but then flies the aircraft again as it approaches and lands the next morning, might administer ETA to improve psychomotor and/or cognitive performance on rising from rest to perform the approach and landing.

healthy male volunteers [11] = test: Time Estimation Test (cognitive performance) of the RTTET in mentally fatigued men; conditions: for Time Estimation test improvement: relative to placebo
healthy male volunteers [12] = test: Adverse events in the efficacy study in mentally fatigued men; conditions: ETA nasal spray 1600 ng per administration, all subjects
[13] = test system: subjects with major depressive disorder; test: Supplemental ETA with itruvone antidepressant therapy (Example 9); assay type: in vivo, human; conditions: ETA added to itruvone
Source text: Itruvone (INN, pregn-4-en-20-yn-3-one) is being developed for the treatment of MDD and is an investigational product not approved by the Food and Drug Administration. The preparation and experimental treatment of MDD with this compound are described, for example, in Monti, U.S. patent Ser. No. 10/322,138, “Treatment of Depressive Disorders,”. Both itruvone and ETA are believed to have a common mechanism of action in terms of activating olfactory chemosensory neurons in the nasal mucosa, and then activating certain hypothalamic circuits in the brain without brain or systemic uptake. In subjects receiving itruvone treatment for major depressive disorder, ETA is administered to the olfactory epithelium as described in Example 4. […] Cognitive function and psychomotor performance improve in this group of subjects. Because itruvone also is administered to the olfactory epithelium in the form of a spray or aerosol, ETA and itruvone may be administered separately, but proximate in time, or co-formulated for simultaneous intranasal administration.

male rats = test: Intravenous and intranasal administration to male rats; assay type: in vivo; conditions: 600 μg/Kg intravenous, 900 μg/Kg intranasal, 7-day period
rat estrogen receptor = test: In vitro agonist/antagonist activity on steroid receptors; assay type: biochemical
healthy male volunteers [14] = test: Reaction Time Test (psychomotor performance) of the RTTET in mentally fatigued men; assay type: in vivo, human; conditions: for number of errors: relative to placebo, all three non-control tests; for variability in Reaction Time test: compared to caffeine and placebo; for effect on Reaction Time test compared with caffeine: midnight and 3 a.m. tests (subjects fatigued)
rats of both sexes = test: 7-day intravenous administration to rats of both sexes; assay type: in vivo
subjects with MDD = test: ETA supplementation in MDD subjects already receiving escitalopram (Example 8); assay type: in vivo, human; conditions: ETA added to escitalopram
Procedure: In subjects experiencing decreased psychomotor and/or cognitive performance in mental fatigue associated with MDD and already receiving treatment with escitalopram, a therapeutically effective amount of ETA is intranasally administered as described in Example 4 as a supplemental or adjunctive treatment. ETA is administered separately from the antidepressant treatment and is given sequentially or proximate in time to situations requiring attention and concentration. […] Psychomotor and cognitive performance improve in this group of subjects.

[15] = test system: healthy volunteers of both sexes; test: Pilot human trials, nasal administration
[16] = test system: isolated human nasal olfactory chemosensory neurons; test: Electrophysiology: inward currents in isolated chemosensory neurons; assay type: cell-based
rat androgen receptor = rat androgen receptor (Rattus norvegicus, UniProt P15207); test: In vitro agonist/antagonist activity on steroid receptors; assay type: biochemical
rat androgen receptor, sequence (P15207 whole entry S389L): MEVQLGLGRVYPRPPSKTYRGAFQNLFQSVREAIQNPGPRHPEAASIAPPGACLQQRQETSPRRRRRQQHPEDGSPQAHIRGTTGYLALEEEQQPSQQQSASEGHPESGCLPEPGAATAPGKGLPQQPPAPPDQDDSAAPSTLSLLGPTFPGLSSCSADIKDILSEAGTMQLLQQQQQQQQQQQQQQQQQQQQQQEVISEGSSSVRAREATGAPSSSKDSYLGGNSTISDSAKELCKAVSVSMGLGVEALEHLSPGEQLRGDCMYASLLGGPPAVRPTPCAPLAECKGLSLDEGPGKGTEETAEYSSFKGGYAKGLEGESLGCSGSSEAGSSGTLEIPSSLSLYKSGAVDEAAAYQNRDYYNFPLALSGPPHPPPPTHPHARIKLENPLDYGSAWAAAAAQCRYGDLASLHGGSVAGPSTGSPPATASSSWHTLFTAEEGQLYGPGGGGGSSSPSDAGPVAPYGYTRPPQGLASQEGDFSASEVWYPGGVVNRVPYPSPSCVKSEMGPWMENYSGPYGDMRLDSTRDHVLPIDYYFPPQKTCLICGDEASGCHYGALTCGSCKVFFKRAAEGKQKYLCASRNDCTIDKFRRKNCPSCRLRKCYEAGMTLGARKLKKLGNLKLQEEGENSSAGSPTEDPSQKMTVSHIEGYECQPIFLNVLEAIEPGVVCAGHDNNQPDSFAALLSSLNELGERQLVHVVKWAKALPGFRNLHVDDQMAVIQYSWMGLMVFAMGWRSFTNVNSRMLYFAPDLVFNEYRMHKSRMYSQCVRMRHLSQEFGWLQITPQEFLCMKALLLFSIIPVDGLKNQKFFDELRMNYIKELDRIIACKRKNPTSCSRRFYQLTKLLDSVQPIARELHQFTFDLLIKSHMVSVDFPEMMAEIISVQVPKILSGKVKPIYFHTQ

[17] = at night during extended wakefulness; cited from earlier work
mice = conditions: forced swim test in mice; imipramine, desipramine, fluoxetine, paroxetine, escitalopram, reboxetine; cited from earlier work
US adults = conditions: caffeine intake; cited from earlier work
depressed patients = conditions: cited from earlier work
[18] = at certain dosages; cited from earlier work
[19] = adjunctive therapy for acute depressive episodes, unipolar and bipolar; cited from earlier work
[20] = both men and women, more pronounced in men

CC(=O)Oc1ccc2c(c1)CC[C@@H]1[C@@H]2CC[C@]2(C)C=CC[C@@H]12 [ETA, 1,3,5(10),16-Estratetraen-3-yl acetate]
psychomotor and cognitive performance [1]: improve | depressive scores [2]: reduce | psychomotor and cognitive performance [2]: improve | psychomotor and cognitive performance [3]: improve | change in mass receptor potential (electrovomerogram) (vomeronasal organ; 60 pg dose to the vomeronasal organ, vs control (propylene glycol), men vs women): higher amplitude in men | skin temperature (vomeronasal organ; both men and women, more pronounced in men (FIGS. 6G and 6H)): increase | electrovomerogram (vomeronasal organ; [20]): increase | α-cortical activity (vomeronasal organ; [20]): increase | skin temperature (vomeronasal organ; men, vs control (FIG. 4C)): increase | integrated electrovomerogram (vomeronasal organ; men, vs control): increase | skin resistance (vomeronasal organ; men, vs control): decrease | electrodermal activity (vomeronasal organ; men): decrease | electrotonic depolarization [4]: electrotonic depolarization | psychomotor and cognitive performance [5]: improve | psychomotor and cognitive performance (subjects with ADHD): improve | psychomotor and cognitive performance [6]: improve | serious adverse events (healthy male volunteers [7]): no serious adverse events | genotoxicity: mutagenic or clastogenic potential (bone marrow): no evidence of mutagenic or clastogenic potential | agonist or antagonist activity (rat progestin receptor): no agonist or antagonist activity | agonist or antagonist activity [8]: no agonist or antagonist activity | genotoxicity: mutagenic or clastogenic potential [9]: no evidence of mutagenic or clastogenic potential | time to improvement in psychomotor and cognitive performance [10]: ≤ 15 min | time to initial physiological response [10]: within a minute | Time Estimation test improvement (healthy male volunteers [11]; 3 a.m. test): significantly improved | Time Estimation test improvement relative to caffeine (healthy male volunteers [11]; midnight and 3 a.m. tests, p<0.01): significantly improved | Time Estimation test improvement (healthy male volunteers [11]; midnight test): significantly improved | tolerability (healthy male volunteers [12]): well tolerated | cognitive function and psychomotor performance [13]: improve | depressive scores [13]: reduce beyond that of itruvone alone | mortality, adverse symptoms, changes in behavior (male rats): no mortality or adverse symptoms, or changes in behavior | agonist or antagonist activity (rat estrogen receptor): no agonist or antagonist activity | number of errors (healthy male volunteers [14]; isochronous stimuli): significantly decrease | variability in Reaction Time test (healthy male volunteers [14]; isochronous): less variability | effect on Reaction Time test compared with caffeine (healthy male volunteers [14]; isochronous, p<0.001): significantly better than the effect of caffeine | number of errors (healthy male volunteers [14]; stochastic stimuli): significantly decrease | variability in Reaction Time test (healthy male volunteers [14]; stochastic): less variability | effect on Reaction Time test compared with caffeine (healthy male volunteers [14]; stochastic, p<0.0001): significantly better than the effect of caffeine | mortality, adverse symptoms, changes in behavior (rats of both sexes; 1 mg/day intravenously, rats of both sexes, 7-day period): no mortality or adverse symptoms, or changes in behavior | macroscopic or microscopic changes in organs (rats of both sexes; rat, in vivo, iv): no macroscopic or microscopic changes | depressive scores (subjects with MDD): reduce beyond that of the escitalopram alone | psychomotor and cognitive performance (subjects with MDD): improve | alpha frequency band of the electroencephalogram ([15]; intranasal administration): did not have significant effect | beta frequency band of the electroencephalogram ([15]; intranasal administration): did not have significant effect | body temperature ([15]; intranasal administration): did not have significant effect | duration of the QTc intervals of the electrocardiogram ([15]; intranasal administration): did not change | frequency of electrodermal activity events (skin conductance) ([15]; intranasal administration): significantly increased | tolerability ([15]; nasal administration, healthy volunteers): well tolerated | amplitude of the response ([16]; dependence on concentration): increased depending on the concentration of the compound | inward currents in the membrane ([16]; isolated human neurons): induced inward currents | agonist or antagonist activity (rat androgen receptor): no agonist or antagonist activity

Cn1c(=O)c2c(ncn2C)n(C)c1=O [caffeine]
reaction time and cognitive performance [17]: improved | Time Estimation test improvement (healthy male volunteers [11]; midnight test): statistically significant | antidepressant-like activity of six typical antidepressants (mice): enhancement | number of errors (healthy male volunteers [14]; isochronous stimuli): significantly decrease | number of errors (healthy male volunteers [14]; stochastic stimuli): significantly decrease | depression symptoms measured by the PHQ-9 test (US adults): reduces depression symptoms | depressive scores (antidepressant action) (depressed patients; chronic supplementation, 60 mg, subjects taking escitalopram): produced rapid antidepressant action by reduction of depressive scores | cognitive performance (depressed patients; low doses, depressed patients): improved

NC(=O)C[S+]([O-])C(c1ccccc1)c1ccccc1 (stereo not shown) [modafinil]
ADHD symptoms [18]: significantly improved | attention [18]: significantly improved | overall depression scores, remission rates and fatigue [19]: improves
